The results in this text go back to PubChem BioAssay AID330 (DTP/NCI, 2004).

Each structure is given as a SMILES string. Values joined by “and” are separate entries in the source; they are usually repeats but may differ in a detail not shown here. Equal values may be shown once. Toxic doses and inconclusive results are not listed.

The assay relates to P388 leukemia ip, CD2F1 mice, survival T/C. Put plainly: NCI In Vivo Anticancer Drug Screen. Data for tumor model P388 Leukemia (intraperitoneal) in CD2F1 (CDF1) mice. The following applies: endpoint: median survival time, higher = longer survival. A digest of the protocol:
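Mice carrying the transplanted tumor received test compound or vehicle. Survival was recorded in each group, and the value is the treated-group measurement divided by that of the vehicle-treated control group.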

The mark [1] stands for this setting: dose: 60.0 mg/kg/injection, schedule: Q01DX005 (ip), vehicle: saline with Tween-80.
Where [2] appears, read: dose: 120.0 mg/kg/injection, schedule: Q01DX005 (ip), vehicle: saline with Tween-80.
Where [3] appears, read: dose: 240.0 mg/kg/injection, schedule: Q01DX005 (ip), vehicle: saline with Tween-80.
Setting [4] is: dose: 50.0 mg/kg/injection, schedule: Q01DX009 (ip), vehicle: Klucel (hydroxypropylcellulose) (HPC).
Setting [5] is: dose: 50.0 mg/kg/injection, schedule: Q01DX005 (ip), vehicle: saline with Tween-80.
Setting [6] is: dose: 25.0 mg/kg/injection, schedule: Q04DX003 (ip), vehicle: saline with Tween-80.
[7] abbreviates: dose: 50.0 mg/kg/injection, schedule: Q04DX003 (ip), vehicle: saline with Tween-80.
The mark [8] stands for this setting: dose: 100.0 mg/kg/injection, schedule: Q04DX003 (ip), vehicle: saline with Tween-80.

As to `Cc1c2c[n+](CCCCCCCC[n+]3ccc4c(C)c5c(c(C)c4c3)c3ccccc3n5CCO)ccc2c(C)c2c1c1ccccc1n2CCO`, the T/C is 154 % of control (dose: 0.78 mg/kg/injection, schedule: Q04DX003 (ip), vehicle: distilled water + Tween-80); 155 % of control and 157 % of control (dose: 1.56 mg/kg/injection, schedule: Q04DX003 (ip), vehicle: distilled water + Tween-80); 155 % of control and 158 % of control (dose: 6.25 mg/kg/injection, schedule: Q04DX003 (ip), vehicle: distilled water + Tween-80); 158 % of control and 184 % of control (dose: 12.5 mg/kg/injection, schedule: Q04DX003 (ip), vehicle: distilled water + Tween-80); 184 % of control (dose: 25.0 mg/kg/injection, schedule: Q04DX003 (ip), vehicle: distilled water + Tween-80); 87 % of control (dose: 50.0 mg/kg/injection, schedule: Q04DX003 (ip), vehicle: distilled water + Tween-80).

Take `COC(=O)c1nnn(-c2ccc(S(N)(=O)=O)cc2)c1C(=O)c1ccc(OC)cc1`: the T/C was 100 % of control under setting [1], 99 % of control under setting [2] and 94 % of control under setting [3].

For `CC(=O)C1CC[C@@]2(C)C(CC[C@H]3[C@@H]4CCC[C@H]([C@H](C)O)[C@@]4(C)CC[C@@H]32)C1` (stereo not given in full), the T/C by setting is: (dose: 12.5 mg/kg/injection, schedule: Q01DX009 (ip), vehicle: Klucel (hydroxypropylcellulose) (HPC)) 91 % of control; (dose: 25.0 mg/kg/injection, schedule: Q01DX009 (ip), vehicle: Klucel (hydroxypropylcellulose) (HPC)) 91 % of control; under setting [4], 88 % of control.

As for `CC1(C)Oc2ccc3ccccc3c2C(c2ccc(O)cc2)=C1c1ccccc1`, the T/C is 103 % of control (dose: 50.0 mg/kg/injection, schedule: Q01DX005 (ip), vehicle: Klucel (hydroxypropylcellulose) (HPC)); 99 % of control (dose: 100.0 mg/kg/injection, schedule: Q01DX005 (ip), vehicle: Klucel (hydroxypropylcellulose) (HPC)); 94 % of control (dose: 200.0 mg/kg/injection, schedule: Q01DX005 (ip), vehicle: Klucel (hydroxypropylcellulose) (HPC)).

For `CC(C)C(C#N)(C(=O)O)C(C)C`, the T/C is 95 % of control (dose: 50.0 mg/kg/injection, schedule: Q01DX009 (ip), vehicle: saline with Tween-80) and 92 % of control (dose: 100.0 mg/kg/injection, schedule: Q01DX009 (ip), vehicle: saline with Tween-80).

`O=C(O)C(=O)O`: the T/C is 98 % of control (dose: 12.5 mg/kg/injection, schedule: Q01DX005 (ip), vehicle: saline); 97 % of control (dose: 25.0 mg/kg/injection, schedule: Q01DX005 (ip), vehicle: saline); 92 % of control under setting [5].

As to `S=C(S)NCCCn1ccnc1`, the T/C runs as follows: under setting [5], 117 % of control; (dose: 100.0 mg/kg/injection, schedule: Q01DX005 (ip), vehicle: saline with Tween-80) 109 % of control; (dose: 200.0 mg/kg/injection, schedule: Q01DX005 (ip), vehicle: saline with Tween-80) 110 % of control.

For the compound `Nc1ccc(S(=O)(=O)n2c(=O)oc3ccc(Br)cc32)cc1`, the T/C is 93 % of control (dose: 100.0 mg/kg/injection, schedule: Q04DX002 (ip), vehicle: Klucel (hydroxypropylcellulose) (HPC)); 90 % of control (dose: 200.0 mg/kg/injection, schedule: Q04DX002 (ip), vehicle: Klucel (hydroxypropylcellulose) (HPC)); 93 % of control (dose: 400.0 mg/kg/injection, schedule: Q04DX002 (ip), vehicle: Klucel (hydroxypropylcellulose) (HPC)).

As to `C=C1CC2(C)CCC(OC(=O)C3(C)OC3C)C(C)(OC(C)=O)C2CC1=C(C)C` (stereo not given), the T/C was 99 % of control (dose: 150.0 mg/kg/injection, schedule: Q01DX001 (ip), vehicle: Klucel (hydroxypropylcellulose) (HPC)) and 98 % of control (dose: 300.0 mg/kg/injection, schedule: Q01DX001 (ip), vehicle: Klucel (hydroxypropylcellulose) (HPC)).

As to `Cc1c(Cl)cccc1N=Cc1cccs1`, the T/C under setting [4] was 105 % of control; the T/C (dose: 100.0 mg/kg/injection, schedule: Q01DX009 (ip), vehicle: Klucel (hydroxypropylcellulose) (HPC)) was 105 % of control; the T/C (dose: 200.0 mg/kg/injection, schedule: Q01DX009 (ip), vehicle: Klucel (hydroxypropylcellulose) (HPC)) is 105 % of control.

Regarding `O=C(N=Nc1c(O)[nH]c2c(Cl)cc(Cl)cc12)C(=O)Nc1cccc(C(F)(F)F)c1`, the T/C (dose: 6.25 mg/kg/injection, schedule: Q01DX009 (ip), vehicle: saline with Tween-80) was 95 % of control; the T/C (dose: 12.5 mg/kg/injection, schedule: Q01DX009 (ip), vehicle: saline with Tween-80) is 93 % of control; the T/C (dose: 25.0 mg/kg/injection, schedule: Q01DX009 (ip), vehicle: saline with Tween-80) was 95 % of control.

With `O=C1C(C(=NCCCN2CCOCC2)c2ccccc2)=C(O)c2ccccc21`, the T/C is, setting by setting: (dose: 25.0 mg/kg/injection, schedule: Q04DX002 (ip), vehicle: saline with Tween-80) 102 % of control; (dose: 50.0 mg/kg/injection, schedule: Q04DX002 (ip), vehicle: saline with Tween-80) 101 % of control; (dose: 100.0 mg/kg/injection, schedule: Q04DX002 (ip), vehicle: saline with Tween-80) 109 % of control.

Regarding `C[C@]12CCC(=O)C[C@@H]1CC[C@@H]1[C@@H]2CC[C@]2(C)[C@@H]3OCCC[C@H]3C[C@@H]12`, the T/C by setting is: under setting [1], 91 % of control; under setting [2], 89 % of control; under setting [3], 90 % of control.

In the case of `COc1ccccc1C1NC(c2ccccc2OC)C2CCCC1NC2=O` (stereo not given), the T/C was 98 % of control (dose: 100.0 mg/kg/injection, schedule: Q04DX003 (ip), vehicle: suspension in saline); 98 % of control (dose: 200.0 mg/kg/injection, schedule: Q04DX003 (ip), vehicle: suspension in saline); 98 % of control (dose: 400.0 mg/kg/injection, schedule: Q04DX003 (ip), vehicle: suspension in saline).

Turning to `CCC1=C[C@H]2CN(CCc3c([nH]c4ccccc34)[C@@](C(=O)OC)(c3cc4c(cc3OC)N(C=O)[C@H]3[C@@](O)(C(=O)OC)[C@H](OC(C)=O)[C@]5(CC)C=CCN6CC[C@]43[C@@H]65)C2)C1`, the T/C by setting is: (dose: 0.13 mg/kg/injection, schedule: Q01DX001 (ip), vehicle: water) 99 % of control; (dose: 0.25 mg/kg/injection, schedule: Q01DX001 (ip), vehicle: water) 100 % of control; (dose: 0.5 mg/kg/injection, schedule: Q01DX001 (ip), vehicle: water) 116 % of control.

Turning to `Cc1cc(C)c(C#N)c(=O)[nH]1`, the T/C by setting is: (dose: 12.5 mg/kg/injection, schedule: Q04DX003 (ip), vehicle: saline with Tween-80) 97 % of control; under setting [6], 103 % of control; under setting [7], 105 % of control; under setting [8], 103 % of control.

Consider `NC(=O)c1ccccn1`, for which the T/C runs as follows: (dose: 25.0 mg/kg/injection, schedule: Q01DX009 (ip), vehicle: saline) 108 % of control; (dose: 50.0 mg/kg/injection, schedule: Q01DX009 (ip), vehicle: saline) 110 % of control; (dose: 100.0 mg/kg/injection, schedule: Q01DX009 (ip), vehicle: saline) 99 % of control; (dose: 200.0 mg/kg/injection, schedule: Q01DX009 (ip), vehicle: saline) 99 % of control.

With `CCOc1cc2c(cc1OC)c[n+](C)c1c3cc(OC)c(OC)cc3ccc21`, the T/C (dose: 10.0 mg/kg/injection, schedule: Q01DX009 (ip), vehicle: water) was 122 % of control.

Regarding `Nc1ccn(C2CC(N)C(CO)O2)c(=O)n1` (stereo not given), the T/C was 120 % of control (dose: 12.5 mg/kg/injection, schedule: Q01DX005 (ip), vehicle: water); 118 % of control and 123 % of control (dose: 25.0 mg/kg/injection, schedule: Q01DX005 (ip), vehicle: water); 153 % of control and 154 % of control (dose: 200.0 mg/kg/injection, schedule: Q01DX005 (ip), vehicle: water).

As to `CC1=C(C(=O)Nc2ccccc2C)C(c2cccc([N+](=O)[O-])c2)C(C(=O)Nc2ccccc2C)=C(C)N1`, the T/C reads like this: (dose: 15.0 mg/kg/injection, schedule: Q01DX005 (ip), vehicle: Klucel (hydroxypropylcellulose) (HPC)) 102 % of control; (dose: 30.0 mg/kg/injection, schedule: Q01DX005 (ip), vehicle: Klucel (hydroxypropylcellulose) (HPC)) 93 % of control; (dose: 60.0 mg/kg/injection, schedule: Q01DX005 (ip), vehicle: Klucel (hydroxypropylcellulose) (HPC)) 88 % of control and 97 % of control.

On to `CC(C)(C)OC(=O)C(N)C(F)C(=O)OC(C)(C)C` (stereo not given), for which the T/C under setting [6] was 96 % of control; the T/C under setting [7] was 101 % of control; the T/C under setting [8] was 99 % of control and 104 % of control; the T/C (dose: 400.0 mg/kg/injection, schedule: Q04DX003 (ip), vehicle: saline with Tween-80) was 97 % of control.
